Reference: paper PMC10504015, “Design, synthesis, and enzyme inhibition evaluation of some novel Mono- and Di-O-β-D-Glycopyranosyl Chalcone analogues with molecular docking studies” (Turkish Journal of Chemistry, 2022)

Tests used:
Type in all cases: biochemical
tyrosinase = tyrosinase (Agaricus bisporus, UniProt C7FF04); assay: Tyrosinase from mushroom inhibitory effect (L-DOPA substrate, 475 nm); conditions: phosphate buffer pH 6.8, read-out: IC50 on tyrosinase (Tyr)
Description: The tyrosinase inhibitory effects of the newly synthesized compounds were performed using microplate reader with minor modifications according to the standard method. […] The activity of tyrosinase solution was adjusted as 250 U/mL in phosphate buffer (pH 6.8, 100 mM). For each wells, 100 μL buffer (pH 6.8, 100 mM), 20 μL of tyrosinase (0.2 U/mL), and 20 μL of compounds were added and incubated 20 min. After incubation, 20 μL of 3,4-dihydroxy-L-phenylalanine (3 mM) was pipetted into wells. Absorbance was measured at 475 nm.

AChE = AChE (Electrophorus electricus, UniProt O42275); conditions: electric eel AChE, Tris-HCl buffer pH 8.0
Chain of AChE (O42275 24-633): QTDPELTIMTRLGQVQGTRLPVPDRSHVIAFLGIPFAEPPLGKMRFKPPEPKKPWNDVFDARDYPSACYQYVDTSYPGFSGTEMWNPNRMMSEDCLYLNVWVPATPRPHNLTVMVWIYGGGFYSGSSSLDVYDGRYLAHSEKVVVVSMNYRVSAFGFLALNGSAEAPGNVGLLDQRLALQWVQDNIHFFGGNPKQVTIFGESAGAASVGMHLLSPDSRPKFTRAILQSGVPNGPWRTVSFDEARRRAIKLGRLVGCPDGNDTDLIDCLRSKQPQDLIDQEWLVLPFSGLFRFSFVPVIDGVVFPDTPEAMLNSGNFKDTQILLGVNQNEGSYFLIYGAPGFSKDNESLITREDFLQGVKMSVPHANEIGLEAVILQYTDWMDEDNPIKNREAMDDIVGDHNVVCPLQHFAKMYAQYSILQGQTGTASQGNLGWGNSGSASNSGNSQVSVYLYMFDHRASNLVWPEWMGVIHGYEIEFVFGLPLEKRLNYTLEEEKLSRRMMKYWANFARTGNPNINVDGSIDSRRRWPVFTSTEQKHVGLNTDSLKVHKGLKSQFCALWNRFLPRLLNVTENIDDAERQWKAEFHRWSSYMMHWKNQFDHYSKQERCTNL
Description: The AChE from electric eel inhibitory effects of the newly synthesized compounds were performed using microplate reader with minor modification according to the standard method. […] The activity of AChE solution was adjusted as 0.2 U/mL in Tris-HCl buffer (pH 8.0, 50 mM). For each wells, 50 μL buffer (pH 8.0, 50 mM), 125 μL 5,5-dithio-bis(2-nitrobenzoic)acid (3 mM), 25 μL of AChE (0.2 U/mL) and 25 μL of compounds were added and incubated 20 min at room temperature. After incubation, 25 μL of acetylthiocholine iodide (15 mM) was pipetted into wells. Absorbance was measured at 412 nm.

α-glycosidase = assay: α-Glycosidase inhibitory effect (p-nitrophenyl-α-D glucopyranoside substrate); conditions: enzyme 2 U/mL, phosphate buffer pH 6.8, 37 °C; nd: not detected
Description: α-glycosidase inhibitory effect of the newly synthesized samples that were solvated in DMSO was performed with some minor modifications of the standard method. The activity degree of the enzyme solution was adjusted as 2 U/mL in phosphate buffer (pH 6.8, 50 mM). For each test tube, 150 μL of the sample, 150 μL of the enzyme (2 U/mL), and 150 μL of buffer were pipetted. After the incubation for 15 min at 37 °C, 150 μL of p-nitrophenyl-α-D glucopyranoside (20 mM, Sigma-Aldrich) was added and then their absorbance was monitored for 20 min at 400 nm.

Chain of tyrosinase (C7FF04 1-392 limits assumed): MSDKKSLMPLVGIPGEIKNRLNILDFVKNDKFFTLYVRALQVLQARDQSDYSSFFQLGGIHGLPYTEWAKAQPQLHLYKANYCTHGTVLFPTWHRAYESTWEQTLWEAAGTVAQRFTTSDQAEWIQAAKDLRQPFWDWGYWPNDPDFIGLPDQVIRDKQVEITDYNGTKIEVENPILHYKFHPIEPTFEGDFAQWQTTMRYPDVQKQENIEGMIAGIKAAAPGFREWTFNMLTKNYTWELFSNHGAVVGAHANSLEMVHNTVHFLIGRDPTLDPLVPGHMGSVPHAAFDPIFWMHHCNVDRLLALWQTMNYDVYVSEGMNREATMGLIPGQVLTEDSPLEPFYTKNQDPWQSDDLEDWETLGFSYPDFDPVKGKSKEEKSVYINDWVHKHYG

COc1cc(C(=O)/C=C/c2cccc(O)c2)ccc1O[C@@H]1O[C@H](CO)[C@@H](O)[C@H](O)[C@H]1O [7b, (2E)-1-(4-O-β-D-glucopyranosyl-3-methoxyphenyl)-3-(3-hydroxyphenyl)prop-2-en-1-one]
IC50 (tyrosinase): 82.5 ± 4.5 µM | IC50 (AChE): > 100 µM

COc1ccccc1/C=C/C(=O)c1cc(OC2OC(CO)C(O)C(O)C2O)cc(OC2OC(CO)C(O)C(O)C2O)c1 [17a, (2E)-1-(3,5-di-O-β-D-glucopyranosylphenyl)-3-(2-methoxyphenyl)-prop-2-en-1-one]
IC50 (α-glycosidase): 23.6 ± 0.9 mM | IC50 (tyrosinase): > 100 µM | IC50 (AChE): > 100 µM

COc1ccccc1/C=C/C(=O)c1cc(O)cc(O[C@@H]2O[C@H](CO)[C@@H](O)[C@H](O)[C@H]2O)c1 [16a, (2E)-1-(3-O-β-D-glucopyranosyl-5-hyroxyphenyl)-3-(2-methoxyphenyl)-prop-2-en-1-one]
IC50 (α-glycosidase): 12.87 ± 0.09 mM | IC50 (tyrosinase): > 100 µM | IC50 (AChE): > 100 µM

COc1cc(C(=O)/C=C/c2ccccc2O)ccc1O[C@@H]1O[C@H](CO)[C@@H](O)[C@H](O)[C@H]1O [7a, (2E)-1-(4-O-β-D-glucopyranosyl-3-methoxyphenyl)-3-(2-hydroxyphenyl)prop-2-en-1-one]
IC50 (tyrosinase): > 100 µM | IC50 (AChE): > 100 µM

COc1cc(C(=O)/C=C/c2ccc(O)cc2)ccc1OC1OC(CO)C(O)C(O)C1O [7c, (2E)-1-(4-O-β-D-glucopyranosyl-3-methoxyphenyl)-3-(4-hydroxyphenyl)prop-2-en-1-one]
IC50 (tyrosinase): 11.1 ± 0.55 µM | IC50 (AChE): > 100 µM

COc1cc(C(=O)/C=C/c2ccccc2O[C@@H]2O[C@H](CO)[C@@H](O)[C@H](O)[C@H]2O)ccc1O[C@@H]1O[C@H](CO)[C@@H](O)[C@H](O)[C@H]1O [8a, (2E)-1-(4-O-β-D-glucopyranosyl-3-methoxyphenyl)-3-(2-O-β-D-glucopyranosylphenyl)-prop-2-en-1-one]
IC50 (tyrosinase): > 100 µM | IC50 (AChE): > 100 µM

COc1cccc(/C=C/C(=O)c2cc(OC3OC(CO)C(O)C(O)C3O)cc(OC3OC(CO)C(O)C(O)C3O)c2)c1 [17b, (2E)-1-(3,5-di-O-β-D-glucopyranosylphenyl)-3-(3-methoxyphenyl)-prop-2-en-1-one]
IC50 (α-glycosidase): 16.6 ± 0.62 mM | IC50 (tyrosinase): > 100 µM | IC50 (AChE): > 100 µM

COc1cc(C(=O)/C=C/c2ccc(O[C@@H]3O[C@H](CO)[C@@H](O)[C@H](O)[C@H]3O)cc2)ccc1O[C@@H]1O[C@H](CO)[C@@H](O)[C@H](O)[C@H]1O [8c, (2E)-1-(4-O-β-D-glucopyranosyl-3-methoxyphenyl)-3-(4-O-β-D-glucopyranosylphenyl)-prop-2-en-1-one]
IC50 (tyrosinase): 53.6 ± 2.31 µM | IC50 (AChE): > 100 µM

COc1cc(C(=O)/C=C/c2cccc(OC3OC(CO)C(O)C(O)C3O)c2)ccc1OC1OC(CO)C(O)C(O)C1O [8b, (2E)-1-(4-O-β-D-glucopyranosyl-3-methoxyphenyl)-3-(3-O-β-D-glucopyranosylphenyl)-prop-2-en-1-one]
IC50 (tyrosinase): > 100 µM | IC50 (AChE): 81.8 ± 3.4 µM

COc1cccc(/C=C/C(=O)c2cc(O)cc(O[C@@H]3O[C@H](CO)[C@@H](O)[C@H](O)[C@H]3O)c2)c1 [16b, (2E)-1-(3-O-β-D-glucopyranosyl-5-hyroxyphenyl)-3-(3-methoxyphenyl)-prop-2-en-1-one]
IC50 (α-glycosidase): 6.6 ± 0.05 mM | IC50 (tyrosinase): > 100 µM | IC50 (AChE): > 100 µM

COc1ccc(/C=C/C(=O)c2cc(O)cc(O[C@@H]3O[C@H](CO)[C@@H](O)[C@H](O)[C@H]3O)c2)cc1 [16c, (2E)-1-(3-O-β-D-glucopyranosyl-5-hydroxyphenyl)-3-(4-methoxyphenyl)-prop-2-en-1-one]
IC50 (α-glycosidase): 6.8 ± 0.06 mM | IC50 (tyrosinase): > 100 µM | IC50 (AChE): > 100 µM

COc1ccc(/C=C/C(=O)c2cc(OC3OC(CO)C(O)C(O)C3O)cc(OC3OC(CO)C(O)C(O)C3O)c2)cc1 [17c, (2E)-1-(3,5-di-O-β-D-glucopyranosylphenyl)-3-(4-methoxyphenyl)-prop-2-en-1-one]
IC50 (α-glycosidase): 16.3 ± 0.63 mM | IC50 (tyrosinase): 34.4 ± 1.74 µM | IC50 (AChE): > 100 µM
